Data published in patent US4535159A, “Process for producing 1-position amino-derivatives of 1-(3',4'-methylenedioxyphenyl)propane-2-ol” (Ferrer Internacional, S.A., priority 1981, dated 1985).

Key:
Swiss male mice = assay: Analgesic activity, phenylquinone test (Siegmund et al), oral administration in Swiss male mice; assay type: in vivo; settings: Mus musculus
From the text: (a) Analgesic activity.-Analgesic activity has been determined in Swiss male mice by orally administering the compounds according to the phenylquinone test, as described by Siegmund et al (Proc. Soc.Exp.Biol.Med., 95, 729, 1957). From the analgesia values obtained, the ED50 for each compound has been calculated.

[1] = Acute toxicity, oral administration in female and male Swiss mice (Reed-Muench method as modified by Pizzi); settings: mouse, in vivo
From the text: (b) Acute toxicity.-Acute toxicity has been determined in both female and male Swiss mice by oral administration according to the method by Reed-Muench as modified by Pizzi (Human Biology, 22(3), 151-190, 1950).

| Structure (SMILES) | ED50 (Swiss male mice) [mg/kg] | LD50 [1] [mg/kg] |
| --- | --- | --- |
| C[C@H](O)[C@H](NC1CC1)c1ccc2c(c1)OCO2 (relative stereo) [Example 12, d,l-erythro-1-(3',4'-methylenedioxyphenyl)-1-cyclopropylaminopropane-2-ol] | 62.3 | 780 |
| CC(=O)Oc1ccccc1C(=O)O [Acetylsalicylic acid, reference compound] | 72 |  |
| C[C@H](O)[C@@H](c1ccc2c(c1)OCO2)N1CCCCCC1 (relative stereo) [Example 8, d,l-erythro-1-(3',4'-methylenedioxyphenyl)-1-homopiperidino-propane-2-ol] | 45.5 | 233 |
| C[C@H](O)[C@H](NC1CCCCC1)c1ccc2c(c1)OCO2 (relative stereo) [Example 13, d,l-erythro-1-(3',4'-methylenedioxyphenyl)-1-cyclohexylaminopropane-2-ol] | 31.7 | 245 |
| COc1ccc2c3c1O[C@H]1[C@@H](O)C=C[C@H]4[C@@H](C2)N(C)CC[C@@]341 [Codeine, reference compound] | 1.97 |  |
| C[C@H](O)[C@@H](c1ccc2c(c1)OCO2)N(C)Cc1ccccc1 (relative stereo) [Example 10, d,l-erythro-1-(3',4'-methylenedioxyphenyl)-1-(N-methylbenzylamino)-propane-2-ol] | 33.8 | 360 |
| C[C@H](O)[C@@H](c1ccc2c(c1)OCO2)N1CCOCC1 (relative stereo) [Example 2, d,l-erythro-1-(3',4'-methylenedioxyphenyl)-1-morpholine-propane-2-ol] | 25.7 | 1200 |
| C[C@H](O)[C@H](NCc1ccccc1)c1ccc2c(c1)OCO2 (relative stereo) [Example 9, d,l-erythro-1-(3',4'-methylenedioxyphenyl)-1-benzylaminopropane-2-ol] | 28.8 | 252 |
| C[C@H](O)[C@@H](c1ccc2c(c1)OCO2)N1CCN(Cc2ccccc2)CC1 (relative stereo) [Example 3, d,l-erythro-1-(3',4'-methylenedioxyphenyl)-1-(4-benzyl-1-piperazinyl)propane-2-ol] | 29.7 | 256 |
| Cc1c(N(C)C)c(=O)n(-c2ccccc2)n1C [Aminophenazone, reference compound] | 23.4 |  |
| C[C@H](O)[C@@H](c1ccc2c(c1)OCO2)N1CCC(O)CC1 (relative stereo) [Example 6, d,l-erythro-1-(3',4'-methylenedioxyphenyl)-1-(4-hydroxypiperidine)-propane-2-ol] | 109 | 1060 |
| CCN(CC)[C@H](c1ccc2c(c1)OCO2)[C@H](C)O (relative stereo) [Example 4, d,l-erythro-1-(3',4'-methylenedioxyphenyl)-1-diethylamino-propane-2-ol] | 107 | 317 |
| C[C@H](O)[C@@H](c1ccc2c(c1)OCO2)N1CCCC1 (relative stereo) [Example 7, d,l-erythro-1-(3',4'-methylenedioxyphenyl)-1-pyrrolidinopropane-2-ol] | 140 | 599 |
| C[C@H](O)[C@@H](c1ccc2c(c1)OCO2)N1CCCCC1 (relative stereo) [Example 5, d,l-erythro-1-(3',4'-methylenedioxyphenyl)-1-piperidinepropane-2-ol] | 33.3 | 277 |
| C[C@H](O)[C@@H](c1ccc2c(c1)OCO2)N(C)C1CCCCC1 (relative stereo) [Example 11, d,l-erythro-1-(3',4'-methylenedioxyphenyl)-1-(N-methylcyclohexylamino)-propane-2-ol] | 29.8 | 167 |
